The text below walks through data of PMC2248166, “Quantitative peptide binding motifs for 19 human and mouse MHC class I molecules derived using positional scanning combinatorial peptide libraries” (Immunome Research, 2008).

Among the targets are HLA B*5802 (Homo sapiens, UniProt P01889, A329T/C349S/D201E/D98Y/E176V/E187L/E204Q/E69T/G107R/I218V/I90N/K202T/L105A/N104I/N87E/Q89R/Q94S/R106L/R155S/R180L/R86G/S101N/S121W/S35A/S48A/V127L/V306I/V36M/Y140S/Y91M); H-2 D^d (Mus musculus, UniProt P01900); HLA A*6802 (Homo sapiens, UniProt P04439, A269V/D140Y/D185E/E176V/E277Q/E87N/F33Y/G231S/I121R/I166T/I218V/L180W/L300P/L318F/N151K/P208A/P217A/Q86R/R138H/R169H/S129P/T345S/V36M); HLA B*5101 (Homo sapiens, UniProt P01889, A329T/A93T/A95T/C349S/D138N/D201E/D98Y/E187L/E204Q/E69T/G107R/I218V/K202T/L105A/L119W/N104I/Q94N/R106L/R155S/R180L/S101N/S121T/S35A/S48A/V306I/V36M/Y195H/Y91F); HLA B*5301 (Homo sapiens, UniProt P01889, A329T/A93T/A95T/C349S/D201E/D98Y/E176V/E187L/E204Q/E69T/G107R/I218V/K202T/L105A/L119I/N104I/Q94N/R106L/R155S/R180L/S101N/S121R/S35A/S48A/T118I/V127L/V306I/V36M/Y140S/Y91F); H-2 K^d (Mus musculus, UniProt P01902); HLA B*5401 (Homo sapiens, UniProt P01889, A329T/C349S/D138N/D201E/E176V/E187T/E204Q/E69G/I76V/K202T/L119W/R155S/R180L/S121T/S35A/S48A/V127L/V306I/V36M/Y140L); H-2 K^k (Mus musculus, UniProt P04223); H-2 D^b (Mus musculus, UniProt P01899); HLA B*3501 (Homo sapiens, UniProt P01889, A329T/A93T/A95T/C349S/D201E/D98Y/E176V/E187L/E204Q/E69T/I218V/K202T/L119I/Q94N/R155S/R180L/S121R/S35A/S48A/T118I/V127L/V306I/V36M/Y140S/Y91F); HLA B*5801 (Homo sapiens, UniProt P01889, A329T/C349S/D201E/D98Y/E176V/E187L/E204Q/E69T/G107R/I218V/I90N/K202T/L105A/L119I/N104I/N87E/Q89R/Q94S/R106L/R155S/R180L/R86G/S101N/S121R/S35A/S48A/T118I/V127L/V306I/V36M/Y140S/Y91M).

Type in all cases: binding
The next assay deals with HLA B*1503 (Homo sapiens, UniProt P01889, A329T/A93T/A95T/C349S/D201E/D98Y/E187L/E204Q/K202T/N87E/Q94N/R155S/R180L/S121R/S35A/V306I/V36M/Y140S/Y91S). Kind of assay: biochemical.
A further assay concerns the target HLA A*3001 (Homo sapiens, UniProt P04439, D140H/D185E/E176W/F33S/G80R/H175R/K168Q/R138E/R41S). The assay is described as follows: biochemical.
A further assay concerns the target HLA B*1501 (Homo sapiens, UniProt P01889, A329T/A93T/A95T/C349S/D201E/D98Y/E187L/E204Q/E69M/E70A/K202T/N87E/Q94N/R155S/R180W/S121R/S35A/S48A/V306I/V36M/Y140S/Y91S). The assay is described as follows: biochemical.
The target of a further assay is HLA A*3201 (Homo sapiens, UniProt P04439, A270S/D101S/D185E/E176V/E277Q/F133L/G103R/G107R/G231S/H175R/I121M/I218V/I322F/K168Q/L105A/L300P/L318F/M331R/P208A/P217A/Q94H/R106L/R138Q/S129P/T104I/T323A/T345S/V100E/V321M/V358M). Kind of assay: biochemical.
The target of the next assay is HLA B*0801 (Homo sapiens, UniProt P01889, A93T/A95T/D138N/E176V/E187T/K202T/Q94N/R180D/S35A/V36M/Y33D/Y91F). The assay is described as follows: biochemical.

Chain of H-2 D^d (P01900 whole entry, looked up): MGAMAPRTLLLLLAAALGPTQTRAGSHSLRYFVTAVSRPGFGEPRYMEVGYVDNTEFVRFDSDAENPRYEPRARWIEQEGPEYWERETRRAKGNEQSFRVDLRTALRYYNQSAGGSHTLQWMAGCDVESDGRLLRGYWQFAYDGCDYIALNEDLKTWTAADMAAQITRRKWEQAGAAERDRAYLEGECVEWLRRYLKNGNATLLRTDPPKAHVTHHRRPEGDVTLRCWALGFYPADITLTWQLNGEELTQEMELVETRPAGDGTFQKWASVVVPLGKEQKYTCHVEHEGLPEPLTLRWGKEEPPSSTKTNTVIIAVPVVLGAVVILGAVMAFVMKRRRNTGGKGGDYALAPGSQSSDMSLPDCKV
Chain of H-2 K^d (P01887 21-119): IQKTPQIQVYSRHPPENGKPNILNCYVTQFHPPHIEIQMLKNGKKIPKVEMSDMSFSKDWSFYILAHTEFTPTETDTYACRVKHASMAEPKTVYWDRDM
Chain of H-2 K^d (P01902 22-368): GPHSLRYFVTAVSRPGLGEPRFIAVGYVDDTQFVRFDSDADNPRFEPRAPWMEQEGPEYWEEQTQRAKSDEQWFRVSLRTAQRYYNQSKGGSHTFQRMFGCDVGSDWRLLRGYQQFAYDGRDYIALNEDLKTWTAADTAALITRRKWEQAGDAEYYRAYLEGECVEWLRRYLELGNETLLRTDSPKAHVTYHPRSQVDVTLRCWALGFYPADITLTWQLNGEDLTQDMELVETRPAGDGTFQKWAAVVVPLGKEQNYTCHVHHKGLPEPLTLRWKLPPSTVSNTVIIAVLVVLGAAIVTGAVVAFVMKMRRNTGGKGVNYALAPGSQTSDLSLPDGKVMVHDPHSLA
Chain of H-2 K^k (P01887 21-119): as the sequence (P01887 21-119) above
Chain of H-2 K^k (P04223 22-369): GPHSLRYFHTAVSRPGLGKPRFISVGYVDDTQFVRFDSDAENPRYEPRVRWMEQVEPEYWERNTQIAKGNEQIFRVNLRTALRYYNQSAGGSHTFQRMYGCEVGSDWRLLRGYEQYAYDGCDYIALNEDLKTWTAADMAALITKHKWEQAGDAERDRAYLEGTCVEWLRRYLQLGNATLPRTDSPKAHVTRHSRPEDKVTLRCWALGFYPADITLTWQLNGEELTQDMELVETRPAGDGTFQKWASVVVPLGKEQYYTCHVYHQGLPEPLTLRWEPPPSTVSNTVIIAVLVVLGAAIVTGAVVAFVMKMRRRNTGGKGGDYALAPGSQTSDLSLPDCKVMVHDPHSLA
Chain of H-2 D^b (P01887 21-119): as the sequence (P01887 21-119) above
Chain of H-2 D^b (P01899 25-362): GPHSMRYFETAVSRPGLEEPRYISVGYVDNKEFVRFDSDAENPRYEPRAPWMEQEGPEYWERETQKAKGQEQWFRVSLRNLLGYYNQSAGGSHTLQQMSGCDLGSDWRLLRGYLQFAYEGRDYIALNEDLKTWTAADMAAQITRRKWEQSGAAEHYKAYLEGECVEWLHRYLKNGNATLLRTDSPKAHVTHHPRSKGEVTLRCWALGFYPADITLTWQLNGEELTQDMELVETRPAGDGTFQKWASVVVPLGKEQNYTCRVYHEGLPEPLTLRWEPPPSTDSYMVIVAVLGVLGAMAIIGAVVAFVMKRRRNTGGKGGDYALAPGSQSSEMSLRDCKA

Consider XXXXXXXQX [3064.0154], for which the “Normalized average relative binding affinity(ARB)” value at HLA B*5802 came out at 0.30; on H-2 D^d, 0.68; at HLA A*6802, 0.14; on HLA B*1503 it was 0.19; on HLA B*5101 it was 0.32; at HLA B*5301 it was 0.16. Further, the “Normalized average relative binding affinity(ARB)” value at H-2 K^d was determined as 0.54; at HLA A*3001, 0.27; at HLA B*5401 it was 0.11; at H-2 K^k, 0.19; at HLA B*1501, 0.17; on HLA A*3201, 0.35. For the same sequence, the “Normalized average relative binding affinity(ARB)” value at H-2 D^b turned out to be 0.16; on HLA B*0801, 0.15; at HLA B*3501, 0.10; at HLA B*5801, 0.39.
On to XXXXXXXRX [3064.0155], for which the “Normalized average relative binding affinity(ARB)” value on HLA B*5802 was 0.37; on H-2 D^d, 0.46; at HLA A*6802, 0.13; at HLA B*1503, 0.11; at HLA B*5101, 0.36; at HLA B*5301 it was 0.46. Besides, the “Normalized average relative binding affinity(ARB)” value is recorded as 0.49 at H-2 K^d; 0.35 on HLA A*3001; 0.059 on HLA B*5401; 0.10 on H-2 K^k; 0.15 on HLA B*1501; 0.26 at HLA A*3201. Further, the “Normalized average relative binding affinity(ARB)” value worked out at 0.068 on H-2 D^b, 0.30 at HLA B*0801, 0.072 on HLA B*3501 and 0.13 at HLA B*5801.
In the case of XXXXXXXSX [3064.0156], the “Normalized average relative binding affinity(ARB)” value is reported as 0.30 at HLA B*5802; 1.0 at H-2 D^d; 0.27 on HLA A*6802; 1.0 at HLA B*1503; 0.44 at HLA B*5101; 0.11 at HLA B*5301. Besides, the “Normalized average relative binding affinity(ARB)” value turned out to be 0.61 on H-2 K^d; 0.23 on HLA A*3001; 1.0 at HLA B*5401; 0.48 at H-2 K^k; 0.34 on HLA B*1501; 1.0 on HLA A*3201. The “Normalized average relative binding affinity(ARB)” value at H-2 D^b is listed as 0.13; on HLA B*0801 it was 1.0; on HLA B*3501 it was 0.20; on HLA B*5801 it was 0.31.
In the case of XXXXXXXTX [3064.0157], the “Normalized average relative binding affinity(ARB)” value was determined as 0.66 at HLA B*5802; 0.58 on H-2 D^d; 0.37 at HLA A*6802; 0.23 at HLA B*1503; 0.57 at HLA B*5101; 0.22 at HLA B*5301. For the same sequence, the “Normalized average relative binding affinity(ARB)” value on H-2 K^d is on record as 0.52; on HLA A*3001 it was 0.31; on HLA B*5401, 0.20; at H-2 K^k, 0.28; at HLA B*1501, 0.40; at HLA A*3201 it was 0.86. Besides, the “Normalized average relative binding affinity(ARB)” value came to 0.24 on H-2 D^b, 0.24 on HLA B*0801, 0.26 at HLA B*3501 and 0.29 at HLA B*5801.
XXXXXXXVX [3064.0158]: the “Normalized average relative binding affinity(ARB)” value at HLA B*5802 amounted to 0.26; at H-2 D^d it was 0.52; on HLA A*6802, 0.17; at HLA B*1503 it was 0.34; on HLA B*5101, 0.32; on HLA B*5301, 0.51. Besides, the “Normalized average relative binding affinity(ARB)” value at H-2 K^d was determined as 0.37; at HLA A*3001 it was 0.19; on HLA B*5401, 0.10; at H-2 K^k it was 0.38; on HLA B*1501, 0.38; on HLA A*3201 it was 0.62. For the same sequence, the “Normalized average relative binding affinity(ARB)” value worked out at 0.35 on H-2 D^b, 0.48 on HLA B*0801, 0.37 at HLA B*3501 and 0.20 at HLA B*5801.
Consider XXXXXXXWX [3064.0159], for which the “Normalized average relative binding affinity(ARB)” value at HLA B*5802 was determined as 0.16; on H-2 D^d, 0.27; on HLA A*6802, 0.16; at HLA B*1503 it was 0.13; on HLA B*5101 it was 0.20; at HLA B*5301 it was 0.099. Besides, the “Normalized average relative binding affinity(ARB)” value is on record as 0.26 on H-2 K^d; 0.16 at HLA A*3001; 0.051 at HLA B*5401; 0.18 on H-2 K^k; 0.035 at HLA B*1501; 0.089 on HLA A*3201. The “Normalized average relative binding affinity(ARB)” value on H-2 D^b turned out to be 0.13; on HLA B*0801, 0.11; at HLA B*3501, 0.047; at HLA B*5801, 0.84.
